Results on two molecules are retold here after BindingDB's records for doi:10.1074/jbc.M113.510743 (Max Planck Institute of Biophysics, 2014).

In the assay the target is T1, APC family lysine-specific permease (Salmonella typhimurium (strain LT2 / SGSC1412 / ATCC 700720), UniProt Q8ZNK9).
T1 sequence (Q8ZNK9 whole entry): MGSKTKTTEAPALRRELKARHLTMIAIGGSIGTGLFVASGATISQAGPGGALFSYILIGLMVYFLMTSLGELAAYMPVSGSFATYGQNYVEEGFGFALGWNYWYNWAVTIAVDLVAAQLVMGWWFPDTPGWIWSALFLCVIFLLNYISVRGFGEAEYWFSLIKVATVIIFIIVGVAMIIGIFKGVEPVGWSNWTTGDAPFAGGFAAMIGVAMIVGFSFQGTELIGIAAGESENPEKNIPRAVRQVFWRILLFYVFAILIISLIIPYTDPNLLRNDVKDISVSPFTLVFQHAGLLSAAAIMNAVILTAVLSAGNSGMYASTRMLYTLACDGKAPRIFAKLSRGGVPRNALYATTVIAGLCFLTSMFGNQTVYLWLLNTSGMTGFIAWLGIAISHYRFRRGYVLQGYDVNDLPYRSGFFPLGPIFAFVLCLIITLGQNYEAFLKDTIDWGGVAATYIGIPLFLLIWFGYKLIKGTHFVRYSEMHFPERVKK
Kind of assay: Isothermal Titration Calorimetry (ITC). The following applies: pH 5.9; 20 °C. On the procedure:
ITC measurements were carried out at 20 °C with a VP-ITC calorimeter (GE Healthcare, MicroCal, Inc.) consisting of a 1.45-ml reaction cell. STM2200 in 20 mM MES-NaOH, 150 mM NaCl, 0.025% (w/v) β-DDM, pH 5.9 at concentrations ranging between 15 and 30 μM was titrated with ligands under conditions where the sum of the ionic strengths of ligand and NaCl was always 150 mM. After an initial 4-μl injection, all subsequent ligand additions consisted of 5 μl every 240-300 s. Stirring was at 307 rpm.

For orientation: Kd means the concentration at which binding is half-saturated. A low value points to tighter binding.

With `NCCCC[C@@H](N)C(=O)O` [(2R)-2,6-diaminohexanoic acid], the affinity, expressed as Kd, was 1800 µM. That is a millimolar value.
Turning to `NCCCC[C@H](N)C(=O)O` [(2S)-2,6-diaminohexanoic acid], the dissociation constant (Kd) is 40 µM. Against the preceding molecule, the Kd is about 45-fold lower.
